Test results from US20220249343A1, “COSMETIC COMPOSITION INCLUDING 5-BENZYLAMINOSALICYLIC ACID DERIVATIVE, AND TOPICAL USE THEREOF” (GNT PHARMA CO., LTD., priority 2019, published 2022).

Test system: human skin
Assay: Safety assessment for human skin: patch test
Type: in vivo
Conditions: human volunteers
Procedure: Safety of Compound 2 was assessed by a patch test of 33 human volunteers. At this time, a patch treated with a composition containing 0.0544 mg/ml of compound 2 was attached to the test site, after 24 hours, the patch was removed and the location was marked. After 1 hour, a degree of reactivity was determined and recorded.
The skin reactivity was calculated by multiplying the average of evaluated values for 33 subjects by 25, while the skin irritation index was determined by dividing the above calculated value by the number of evaluations.
The degree of skin irritation of the test substance was determined with reference to the skin irritation index table (Table 1).

With `O=C(O)c1cc(NCCc2ccc(C(F)(F)F)cc2)ccc1O` [Compound 2] as the compound, how does the “adverse skin reactions during the period of use” value read?
The value was “no reports of specific adverse skin reactions”.

What about the “findings on physical examination by a dermatologist” value of the same compound?
Its value is “no abnormal findings were observed”.
